The conditions of series [1]: male Sprague-Dawley rats; cited from earlier work.
The nature of series [2]: physchem. The following applies: 37 °C, aqueous with cosolvent or surfactant or cyclodextrin, thermodynamic from solid.
Experimental: (§1) Solubility Experiments: The quantification of NCL was validated using a Phenomenex Gemini-NX HPLC-UV/vis and a C18 column (250 mm x 4.6 mm, 5 mm particle diameter). […] The considered concentration range of known NCL was in between 0.5-100 µg/mL. The flow rate and the injection volume was set to 1.0 mL/min and 50 µL, respectively. The limit of detection was 0.1 µg/mL and the limit of quantification 0.5 µg/mL. The absorbance was measured at 254 nm. The equilibrium solubility was determined in 40% isopropanol-water medium using a shake-flask method. Accordingly, each solid sample containing 50 mg of NCL was stirred for 24 h in 2.5 mL of the medium at 37°C, and the absorbance was measured at 337 nm. The concentration of the saturated solution was calculated after 24 h which is referred to as the equilibrium solubility of the stable solid form.
(§2) The corresponding equilibrium solubility of NCL, its novel co-crystals and some reference compounds was determined following established procedures. […] In order to allow for a better comparability of the determined solubility values, the amount of NCL actually present in the tested co-crystals was normalized to 50 mg per sample, therefore adjusting the initially weighted sample accordingly.
The conditions of series [3]: for factor: equilibrium solubility relative to pristine NCL; for factor / Solubility at 37° C (24 h) in 40% isopropanol-water mixture: 37°C, 24 h, 40% isopropanol-water; for Solubility at 37° C (24 h) in 40% isopropanol-water mixture: equilibrium solubility, shake-flask, sample normalized to 50 mg of NCL in 2.5 mL; for increase of the equilibrium solubility: result in words, versus pristine NCL.
Experimental: as §1, §2

The conditions of series [4]: solubility factor relative to NCL reported by P. Sanphui et al.; weights not normalized to the amount of NCL; cited from earlier work.

As usually defined, the solubility is how much of the substance goes into solution per volume. Low readings indicate a poorly soluble substance, high ones a readily soluble substance. For orientation: Solubility means how much of the substance goes into solution per volume.

Converted amounts (≈) assume the structure as drawn.

With `O=C(Nc1ccc([N+](=O)[O-])cc1Cl)c1cc(Cl)ccc1O` [NCL, 2',5-dichloro-4'-nitrosalicylanilide], in series [1], the oral bioavailability is 10%. In series [2], this compound yielded a solubility at 24 h of 0.0872 mg/mL (≈ 266 µM).
With Niclosamide - nicotinamide [NCL-NA], in series [3], the factor was 1.3 and the “Solubility at 37° C (24 h) in 40% isopropanol-water mixture” value amounted to 0.11445 mg/mL. Moreover, the “factor*” value in series [4] is on record as 1.2.
Regarding Niclosamide - acetamide [NCL-AA-I], in series [3], the factor is reported as 1.4 and the “increase of the equilibrium solubility” value is “moderate increase”.
On to Niclosamide - isonicotinamide [NCL-IA], for which, in series [3], the factor was 1.3 and the “Solubility at 37° C (24 h) in 40% isopropanol-water mixture” value is 0.11345 mg/mL. Further, the “factor*” value in series [4] is listed as 1.7.
In the case of Niclosamide - isoniazide [NCL-IN], the “increase of the equilibrium solubility” value in series [3] is “moderate increase”.
